Earlier results in patent publication US20230149268A1, “MULTI-PHASE COSMETIC COMPOSITION COMPRISING AT LEAST TWO IMMISCIBLE OILY PHASES” (CHANEL PARFUMS BEAUTE, priority 2020, published 2023).

Details: Table 1, known values, fatty acids

Structure (SMILES)	δd	δh	δp
CCCCCCCCCCCCCCCCCCCC(=O)O [Arachidic acid C20:0, Arachidic acid]	16.1	4.7	2.7
CCCCCCCCCCCCCCCCCCCCCC(=O)O [Behenic acid C22:0, Behenic acid]	16.2	4.3	2.3
CCCCCCCCCC(=O)O [Capric acid C10:0, Capric acid]	16.3	8.6	4.2
CCCCCCCC(=O)O [Caprylic acid C8:0, Caprylic acid]	16.3	10.1	5.2
CCCCCCCC/C=C\CCCCCCCCCCCC(=O)O [Erucic acid C22:1, Erucic acid]	16.3	4.5	2.6
CCCCCCCCCC/C=C\CCCCCCCC(=O)O [Gadoleic acid C20:1, Gadoleic acid]	16.4	5.1	2.9
CCCCCCCCCCCC(=O)O [Lauric acid C12:0, Lauric acid]	16.3	7.5	4
CCCCCCCCCCCCCCCCCCCCCCCC(=O)O [Lignoceric acid C24:0, Lignoceric acid]	16.1	3.9	2.4
CCCCC/C=C\C/C=C\CCCCCCCC(=O)O [Linoleic acid C18:2, Linoleic acid]	16.7	6.1	3.1
CCCCCCCCCCCCCCCCC(=O)O [Margaric acid C17:0, Margaric acid]	16.2	5.4	2.8
CCCCCCCCCCCCCC(=O)O [Myristic acid C14:0, Myristic acid]	16.3	6.6	3.3
CCCCCCCC/C=C\CCCCCCCC(=O)O [Oleic acid C18:1, Oleic acid]	16.4	5.5	3
CCCCCCCCCCCCCCCC(=O)O [Palmitic acid C16:0, Palmitic acid]	16.2	5.8	3.3
CCCCCC/C=C\CCCCCCCC(=O)O [Palmitoleic acid C16:1, Palmitoleic acid]	16.5	6.3	3.4
CCCCCC[C@@H](O)C/C=C\CCCCCCCC(=O)O [Ricinoleic acid]	16.5	8.2	4.4
CCCCCCCCCCCCCCCCCC(=O)O [Stearic acid C18:0, Stearic acid]	16.2	5.2	2.8
